Assays:
Experiment in all cases: cells
IA-LM = type: functional, cell-based; details: Homo sapiens;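 further: cell viability assay measuring growth inhibition of human IA-LM cells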
Description: SANGER: Inhibition of human IA-LM cell growth in a cell viability assay.

J-RT3-T3-5 = type: functional, cell-based, Homo sapiens; details: Homo sapiens, J-RT3-T3-5;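 further: cell viability assay measuring growth inhibition of human J-RT3-T3-5 cells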
Description: SANGER: Inhibition of human J-RT3-T3-5 cell growth in a cell viability assay.

CTV-1 = type: functional, cell-based, Homo sapiens; details: Homo sapiens, CTV-1;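 further: growth inhibition of the cell line, read out with a cell viability assay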
Description: SANGER: Inhibition of human CTV-1 cell growth in a cell viability assay.

CTB-1 = type: functional, cell-based, Homo sapiens; details: Homo sapiens, CTB-1
Description: SANGER: Inhibition of human CTB-1 cell growth in a cell viability assay.

Lu-65 = type: functional, cell-based, Homo sapiens; details: Homo sapiens, Lu-65;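 further: growth inhibition of Lu-65 cancer cells, read out by a cell viability assay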
Description: SANGER: Inhibition of human LU-65 cell growth in a cell viability assay.

D-263MG = type: functional, cell-based, Homo sapiens; details: Homo sapiens, D-263MG
Description: SANGER: Inhibition of human D-263MG cell growth in a cell viability assay.

NCI-H209 = type: functional, cell-based, Homo sapiens; details: Homo sapiens, NCI-H209;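 further: growth inhibition of human NCI-H209 cells, measured by a cell viability assay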
Description: SANGER: Inhibition of human NCI-H209 cell growth in a cell viability assay.

MPP-89 = type: functional, cell-based, Homo sapiens; details: Homo sapiens, MPP-89;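 further: growth inhibition of human MPP-89 cells, read out with a cell viability assay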
Description: SANGER: Inhibition of human MPP-89 cell growth in a cell viability assay.

RPMI-8866 = type: functional, cell-based, Homo sapiens; details: Homo sapiens, RPMI-8866
Description: SANGER: Inhibition of human RPMI-8866 cell growth in a cell viability assay.

A4-Fuk = type: functional, cell-based, Homo sapiens; details: Homo sapiens, A4-Fuk;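 further: growth inhibition of A4-Fuk cells, read out by a cell viability assay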
Description: SANGER: Inhibition of human A4-Fuk cell growth in a cell viability assay.

MOLT-4 = type: functional, cell-based, Homo sapiens; details: Homo sapiens, MOLT-4;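 further: growth inhibition of MOLT-4 cells, determined with a cell viability readout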
Description: SANGER: Inhibition of human MOLT-4 cell growth in a cell viability assay.

BT-474 = type: functional, cell-based, Homo sapiens; details: Homo sapiens, BT-474
Description: SANGER: Inhibition of human BT-474 cell growth in a cell viability assay.

MS-1 = type: functional, cell-based, Homo sapiens; details: Homo sapiens, MS-1;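 further: growth inhibition of MS-1 cells, read out by cell viability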
Description: SANGER: Inhibition of human MS-1 cell growth in a cell viability assay.

UACC-257 = type: functional, cell-based, Homo sapiens; details: Homo sapiens, UACC-257
Description: SANGER: Inhibition of human UACC-257 cell growth in a cell viability assay.

U-266 = type: functional, cell-based, Homo sapiens; details: Homo sapiens, U-266
Description: SANGER: Inhibition of human U-266 cell growth in a cell viability assay.

SK-N-FI = type: functional, cell-based, Homo sapiens; details: Homo sapiens, SK-N-FI;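 further: cell viability assay measuring growth inhibition of human SK-N-FI cells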
Description: SANGER: Inhibition of human SK-N-FI cell growth in a cell viability assay.

JVM-2 = type: functional, cell-based, Homo sapiens; details: Homo sapiens, JVM-2;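 further: growth inhibition of JVM-2 cells determined by a cell viability assay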
Description: SANGER: Inhibition of human JVM-2 cell growth in a cell viability assay.

NCI-H69 = type: functional, cell-based, Homo sapiens; details: Homo sapiens, NCI-H69;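 further: growth inhibition of the cell line, read out with a cell viability assay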
Description: SANGER: Inhibition of human NCI-H69 cell growth in a cell viability assay.

KLE = type: functional, cell-based; details: Homo sapiens;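 further: growth inhibition of human KLE cells, read out with a cell viability assay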
Description: SANGER: Inhibition of human KLE cell growth in a cell viability assay.

IST-MEL1 = type: functional, cell-based, Homo sapiens; details: Homo sapiens, IST-MEL1;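 further: growth inhibition of the cell line, read out with a cell viability assay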
Description: SANGER: Inhibition of human IST-MEL1 cell growth in a cell viability assay.

SNU1 = type: functional, cell-based, Homo sapiens; details: Homo sapiens, SNU1;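 further: growth inhibition of human NCI-SNU-1 cells, measured with a cell viability assay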
Description: SANGER: Inhibition of human NCI-SNU-1 cell growth in a cell viability assay.

no-11 = type: functional, cell-based, Homo sapiens; details: Homo sapiens;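 further: growth inhibition of human NO-11 cells, read out with a cell viability assay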
Description: SANGER: Inhibition of human no-11 cell growth in a cell viability assay.

COR-L88 = type: functional, cell-based, Homo sapiens; details: Homo sapiens, COR-L88;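 further: growth inhibition of COR-L88 cells, read out with a cell viability assay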
Description: SANGER: Inhibition of human COR-L88 cell growth in a cell viability assay.

MZ7-mel = type: functional, cell-based, Homo sapiens; details: Homo sapiens, MZ7-mel;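 further: growth inhibition of human MZ7-mel cells, measured by a cell viability assay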
Description: SANGER: Inhibition of human MZ7-mel cell growth in a cell viability assay.

NH-12 = type: functional, cell-based, Homo sapiens; details: Homo sapiens, NH-12;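 further: growth inhibition of NH-12 cells, read out with a cell viability assay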
Description: SANGER: Inhibition of human NH-12 cell growth in a cell viability assay.

NCI-H23 = type: functional, cell-based, Homo sapiens; details: Homo sapiens, NCI-H23;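 further: cell viability assay measuring growth inhibition of NCI-H23 cells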
Description: SANGER: Inhibition of human NCI-H23 cell growth in a cell viability assay.

ES6 = type: functional, cell-based; details: Homo sapiens;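 further: growth inhibition of human ES6 cells, read out with a cell viability assay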
Description: SANGER: Inhibition of human ES6 cell growth in a cell viability assay.

SNU-5 = type: functional, cell-based, Homo sapiens; details: Homo sapiens, SNU-5;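 further: cell viability readout used to measure growth inhibition in human NCI-SNU-5 cells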
Description: SANGER: Inhibition of human NCI-SNU-5 cell growth in a cell viability assay.

DJM-1 = type: functional, cell-based, Homo sapiens; details: Homo sapiens, DJM-1;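 further: growth inhibition of human DJM-1 cells, read out by a cell viability assay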
Description: SANGER: Inhibition of human DJM-1 cell growth in a cell viability assay.

COLO-800 = type: functional, cell-based, Homo sapiens; details: Homo sapiens, COLO-800;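 further: growth inhibition of COLO-800 cells, read out with a cell viability assay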
Description: SANGER: Inhibition of human COLO-800 cell growth in a cell viability assay.

EW-11 = type: functional, cell-based, Homo sapiens; details: Homo sapiens, EW-11;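 further: growth inhibition of human EW-11 cells, measured with a cell viability assay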
Description: SANGER: Inhibition of human EW-11 cell growth in a cell viability assay.

697 = type: functional, cell-based, Homo sapiens; details: Homo sapiens
Description: SANGER: Inhibition of human 697 cell growth in a cell viability assay.

NB10 = type: functional, cell-based, Homo sapiens; details: Homo sapiens, NB10;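 further: growth inhibition of NB10 cells, read out by a cell viability assay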
Description: SANGER: Inhibition of human NB10 cell growth in a cell viability assay.

SF-539 = type: functional, cell-based, Homo sapiens; details: Homo sapiens, SF-539;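 further: Read-out is a cell viability assay, with IC50 reflecting inhibition of cell growth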
Description: SANGER: Inhibition of human SF539 cell growth in a cell viability assay.

LS-411N = type: functional, cell-based, Homo sapiens; details: Homo sapiens, LS-411N
NCI-H1650 = type: functional, cell-based, Homo sapiens; details: Homo sapiens, NCI-H1650;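 further: growth inhibition of human NCI-H1650 cells measured by a cell viability assay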
Description: SANGER: Inhibition of human NCI-H1650 cell growth in a cell viability assay.

EM-2 = type: functional, cell-based, Homo sapiens; details: Homo sapiens, EM-2;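 further: growth inhibition of EM-2 cells, read out with a cell viability assay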
Description: SANGER: Inhibition of human EM-2 cell growth in a cell viability assay.

KNS-42 = type: functional, cell-based; details: Homo sapiens;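 further: growth inhibition of KNS-42 cells, read out with a cell viability assay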
Description: SANGER: Inhibition of human KNS-42 cell growth in a cell viability assay.

GI-ME-N = type: functional, cell-based, Homo sapiens; details: Homo sapiens, GI-ME-N;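 further: growth inhibition of human GI-ME-N cells, read out with a cell viability assay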
Description: SANGER: Inhibition of human GI-ME-N cell growth in a cell viability assay.

KNS-81-FD = type: functional, cell-based, Homo sapiens; details: Homo sapiens, KNS-81-FD;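 further: growth inhibition of KNS-81-FD cells, read out with a cell viability assay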
Description: SANGER: Inhibition of human KNS-81-FD cell growth in a cell viability assay.

NCI-H1770 = type: functional, cell-based, Homo sapiens; details: Homo sapiens, NCI-H1770;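 further: growth inhibition of NCI-H1770 cells determined with a viability readout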
Description: SANGER: Inhibition of human NCI-H1770 cell growth in a cell viability assay.

ONS-76 = type: functional, cell-based, Homo sapiens; details: Homo sapiens, ONS-76;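 further: growth inhibition of human ONS-76 cells, read out with a cell viability assay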
Description: SANGER: Inhibition of human ONS-76 cell growth in a cell viability assay.

KARPAS-45 = type: functional, cell-based, Homo sapiens; details: Homo sapiens, KARPAS-45;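 further: inhibition of cell line growth, read out through a viability assay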
Description: SANGER: Inhibition of human KARPAS-45 cell growth in a cell viability assay.

MFM-223 = type: functional, cell-based, Homo sapiens; details: Homo sapiens, MFM-223
Description: SANGER: Inhibition of human MFM-223 cell growth in a cell viability assay.

SW872 = type: functional, cell-based, Homo sapiens; details: Homo sapiens, SW872;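 further: growth inhibition of SW872 cells, read out by a viability assay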
Description: SANGER: Inhibition of human SW872 cell growth in a cell viability assay.

COLO-668 = type: functional, cell-based, Homo sapiens; details: Homo sapiens, COLO-668
Description: SANGER: Inhibition of human COLO-668 cell growth in a cell viability assay.

IST-SL1 = type: functional, cell-based, Homo sapiens; details: Homo sapiens, IST-SL1;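 further: growth inhibition of human IST-SL1 cells, read out with a cell viability assay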
Description: SANGER: Inhibition of human IST-SL1 cell growth in a cell viability assay.

LS-1034 = type: functional, cell-based, Homo sapiens; details: Homo sapiens, LS-1034
Description: SANGER: Inhibition of human LS-1034 cell growth in a cell viability assay.

SNU-C2B = type: functional, cell-based; details: Homo sapiens;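 further: cell viability readout used to measure compound-driven suppression of SNU-C2B cell proliferation, IC50 marking half-maximal growth inhibition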
Description: SANGER: Inhibition of human SNU-C2B cell growth in a cell viability assay.

SK-N-DZ = type: functional, cell-based, Homo sapiens; details: Homo sapiens, SK-N-DZ; read-out: IC50;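 further: growth inhibition of the cancer cell line, read out through a viability assay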
Description: SANGER: Inhibition of human SK-N-DZ cell growth in a cell viability assay.

`CC1=C(/C=C/C(C)=C/C=C/C(C)=C/C(=O)O)C(C)(C)CCC1` [TRETINOIN] showed an IC50 (IA-LM) greater than 10 µM, an IC50 (J-RT3-T3-5) greater than 10 µM and an IC50 (CTV-1) of 0.963 µM. The IC50 (CTB-1) was 1.6 µM, the IC50 (Lu-65) was greater than 10 µM and the IC50 (D-263MG) was greater than 10 µM. For the same molecule, the IC50 (NCI-H209) was 2.52 µM, the IC50 (MPP-89) was greater than 10 µM and the IC50 (RPMI-8866) was greater than 10 µM. The IC50 (A4-Fuk) was greater than 10 µM, the IC50 (MOLT-4) was greater than 10 µM and the IC50 (BT-474) was greater than 10 µM. The IC50 (MS-1) was greater than 10 µM, the IC50 (UACC-257) was greater than 10 µM and the IC50 (U-266) was 4.12 µM. The IC50 (SK-N-FI) was greater than 10 µM, the IC50 (JVM-2) was 1.17 µM and the IC50 (NCI-H69) was 2.27 µM. The IC50 (KLE) was greater than 10 µM, the IC50 (IST-MEL1) was greater than 10 µM and the IC50 (SNU1) was greater than 10 µM. It also gave an IC50 (no-11) greater than 10 µM, an IC50 (COR-L88) of 3.86 µM and an IC50 (MZ7-mel) greater than 10 µM. It also gave an IC50 (NH-12) greater than 10 µM, an IC50 (NCI-H23) greater than 10 µM and an IC50 (ES6) greater than 10 µM. For the same molecule, the IC50 (SNU-5) was greater than 10 µM, the IC50 (DJM-1) was greater than 10 µM and the IC50 (COLO-800) was greater than 10 µM. For the same molecule, the IC50 (EW-11) was greater than 10 µM, the IC50 697 was greater than 10 µM and the IC50 (NB10) was greater than 10 µM. For the same molecule, the IC50 (SF-539) was greater than 10 µM, the IC50 (LS-411N) was greater than 10 µM and the IC50 (NCI-H1650) was greater than 10 µM. It also gave an IC50 (EM-2) of 5.33 µM, an IC50 (KNS-42) greater than 10 µM and an IC50 (GI-ME-N) greater than 10 µM. For the same molecule, the IC50 (KNS-81-FD) was greater than 10 µM, the IC50 (NCI-H1770) was greater than 10 µM and the IC50 (ONS-76) was greater than 10 µM. It also gave an IC50 (KARPAS-45) of 2.6 µM, an IC50 (MFM-223) greater than 10 µM and an IC50 (SW872) greater than 10 µM. It also gave an IC50 (COLO-668) greater than 10 µM, an IC50 (IST-SL1) greater than 10 µM and an IC50 (LS-1034) greater than 10 µM. It also gave an IC50 (SNU-C2B) greater than 10 µM and an IC50 (SK-N-DZ) greater than 10 µM.
`COc1ccc(N(C(=O)Oc2c(C)cccc2C)c2ccnc(Nc3ccc(N4CCN(C)CC4)cc3)n2)c(OC)c1` gave an IC50 (IA-LM) greater than 5.12 µM, an IC50 (J-RT3-T3-5) greater than 5.12 µM and an IC50 (CTV-1) of less than 0.02 µM. The IC50 (CTB-1) was greater than 5.12 µM, the IC50 (Lu-65) was greater than 5.12 µM and the IC50 (D-263MG) was 2.29 µM. It also gave an IC50 (NCI-H209) greater than 5.12 µM, an IC50 (MPP-89) of 0.0823 µM and an IC50 (RPMI-8866) greater than 5.12 µM. It also gave an IC50 (A4-Fuk) greater than 5.12 µM, an IC50 (MOLT-4) greater than 5.12 µM and an IC50 (BT-474) greater than 5.12 µM. It also gave an IC50 (MS-1) greater than 5.12 µM, an IC50 (UACC-257) greater than 5.12 µM and an IC50 (U-266) greater than 5.12 µM. The IC50 (SK-N-FI) was greater than 5.12 µM, the IC50 (JVM-2) was greater than 5.12 µM and the IC50 (NCI-H69) was greater than 5.12 µM. It also gave an IC50 (KLE) of 1.86 µM, an IC50 (IST-MEL1) greater than 5.12 µM and an IC50 (SNU1) greater than 5.12 µM. The IC50 (no-11) was greater than 5.12 µM, the IC50 (COR-L88) was greater than 5.12 µM and the IC50 (MZ7-mel) was 5.09 µM. The IC50 (NH-12) was greater than 5.12 µM, the IC50 (NCI-H23) was greater than 5.12 µM and the IC50 (ES6) was 2.05 µM. The IC50 (SNU-5) was greater than 5.12 µM, the IC50 (DJM-1) was greater than 5.12 µM and the IC50 (COLO-800) was greater than 5.12 µM. For the same molecule, the IC50 (EW-11) was greater than 5.12 µM, the IC50 697 was 3.4 µM and the IC50 (NB10) was greater than 5.12 µM. For the same molecule, the IC50 (SF-539) was greater than 5.12 µM, the IC50 (LS-411N) was greater than 5.12 µM and the IC50 (NCI-H1650) was greater than 5.12 µM. For the same molecule, the IC50 (EM-2) was less than 0.02 µM, the IC50 (KNS-42) was greater than 5.12 µM and the IC50 (GI-ME-N) was 3.25 µM. For the same molecule, the IC50 (KNS-81-FD) was greater than 5.12 µM, the IC50 (NCI-H1770) was greater than 5.12 µM and the IC50 (ONS-76) was greater than 5.12 µM. For the same molecule, the IC50 (KARPAS-45) was greater than 5.12 µM, the IC50 (MFM-223) was greater than 5.12 µM and the IC50 (SW872) was 0.865 µM. The IC50 (COLO-668) was greater than 5.12 µM, the IC50 (IST-SL1) was greater than 5.12 µM and the IC50 (LS-1034) was greater than 5.12 µM. It also gave an IC50 (SNU-C2B) greater than 5.12 µM and an IC50 (SK-N-DZ) greater than 5.12 µM.
`CCCCCCCCCCCC1=C(O)C(=O)C=C(O)C1=O` [EMBELIN] gave an IC50 (IA-LM) of 2.23 µM, an IC50 (J-RT3-T3-5) of 6.09 µM and an IC50 (CTV-1) of 9.37 µM. For the same molecule, the IC50 (CTB-1) was 28 µM, the IC50 (Lu-65) was greater than 32 µM and the IC50 (D-263MG) was greater than 32 µM. The IC50 (NCI-H209) was greater than 32 µM, the IC50 (MPP-89) was 25.1 µM and the IC50 (RPMI-8866) was 8.1 µM. The IC50 (A4-Fuk) was greater than 32 µM, the IC50 (MOLT-4) was 10.6 µM and the IC50 (BT-474) was greater than 32 µM. It also gave an IC50 (MS-1) greater than 32 µM, an IC50 (UACC-257) greater than 32 µM and an IC50 (U-266) greater than 32 µM. It also gave an IC50 (SK-N-FI) greater than 32 µM, an IC50 (JVM-2) greater than 32 µM and an IC50 (NCI-H69) greater than 32 µM. For the same molecule, the IC50 (KLE) was 24 µM, the IC50 (IST-MEL1) was 7.9 µM and the IC50 (SNU1) was greater than 32 µM. For the same molecule, the IC50 (no-11) was 9.88 µM, the IC50 (COR-L88) was greater than 32 µM and the IC50 (MZ7-mel) was 9.78 µM. The IC50 (NH-12) was 3.88 µM, the IC50 (NCI-H23) was greater than 32 µM and the IC50 (ES6) was 9.55 µM. The IC50 (SNU-5) was greater than 32 µM, the IC50 (DJM-1) was 8.8 µM and the IC50 (COLO-800) was greater than 32 µM. It also gave an IC50 (EW-11) greater than 32 µM, an IC50 697 greater than 32 µM and an IC50 (NB10) greater than 32 µM. For the same molecule, the IC50 (SF-539) was 15.4 µM, the IC50 (LS-411N) was 7.49 µM and the IC50 (NCI-H1650) was 20.8 µM. For the same molecule, the IC50 (EM-2) was greater than 32 µM, the IC50 (KNS-42) was greater than 32 µM and the IC50 (GI-ME-N) was greater than 32 µM. For the same molecule, the IC50 (KNS-81-FD) was 19.5 µM, the IC50 (NCI-H1770) was greater than 32 µM and the IC50 (ONS-76) was 8.45 µM. It also gave an IC50 (KARPAS-45) of 15.6 µM, an IC50 (MFM-223) greater than 32 µM and an IC50 (SW872) of 16.2 µM. It also gave an IC50 (COLO-668) greater than 32 µM, an IC50 (IST-SL1) greater than 32 µM and an IC50 (LS-1034) greater than 32 µM. The IC50 (SNU-C2B) was greater than 32 µM and the IC50 (SK-N-DZ) was greater than 32 µM.
